# Experimental data from patent publication US10392368B2, “Pyrazolo and triazolo bicyclic compounds as JAK kinase inhibitors” (THERAVANCE BIOPHARMA R&D IP, LLC, priority 2017, dated 2019).
# Assays:
# JAK1 = biological target: T1, JAK1 (Homo sapiens, UniProt P23458); assay: Biochemical JAK1 kinase assay (LanthaScreen); conditions: for Ki: read-out: JAK 1 (pKi) (converted)
# T1 construct: GST; purchased Life Technologies
# Protocol: (§1) A panel of four LanthaScreen JAK biochemical assays (JAK1, 2, 3 and Tyk2) were carried in a common kinase reaction buffer (50 mM HEPES, pH 7.5, 0.01% Brij-35, 10 mM MgCl2, and 1 mM EGTA). Recombinant GST-tagged JAK enzymes and a GFP-tagged STAT1 peptide substrate were obtained from Life Technologies.
# (§2) Serially or discretely diluted compounds were pre-incubated with each of the four JAK enzymes and the substrate in white 384-well microplates (Corning) at ambient temperature for 1 h. ATP was subsequently added to initiate the kinase reactions in 10 μL total volume, with 1% DMSO. […] Kinase reactions were allowed to proceed for 1 hour at ambient temperature before a 10 μL preparation of EDTA (10 mM final concentration) and Tb-anti-pSTAT1 (pTyr701) antibody (Life Technologies, 2 nM final concentration) in TR-FRET dilution buffer (Life Technologies) was added. The plates were allowed to incubate at ambient temperature for 1 h before being read on the EnVision reader (Perkin Elmer). Emission ratio signals (520 nm/495 nm) were recorded and utilized to calculate the percent inhibition values based on DMSO and background controls.
# (§3) For dose-response analysis, percent inhibition data were plotted vs. compound concentrations, and IC50 values were determined from a 4-parameter robust fit model with the Prism software (GraphPad Software). Results were expressed as pIC50 (negative logarithm of IC50) and subsequently converted to pKi (negative logarithm of dissociation constant, Ki) using the Cheng-Prusoff equation.
# [1] = system: IL-2 stimulated pSTAT5 in Tall-1 T cells; assay: Cellular JAK3 potency assay: inhibition of IL-2 stimulated pSTAT5 in Tall-1 T cells; type: cell-based, human; conditions: for Tall-1 (pIC50): IL-2 stimulated pSTAT5 in Tall-1 T cells; for IC50: Homo sapiens, TALL-1, IL-2 stimulated pSTAT5 in Tall-1 T cells, read-out: Tall-1 (pIC50) (converted)
# Protocol: The potency of test compounds for inhibition of interleukin-2 (IL-2) stimulated STAT5 phosphorylation was measured in the Tall-1 human T cell line (DSMZ) using AlphaLisa. Because IL-2 signals through JAK3, this assay provides a measure of JAK3 cellular potency.
# Compounds were serially diluted in DMSO and dispensed acoustically to empty wells. Assay media (phenol red-free DMEM (Life Technologies) supplemented with 10% FBS (ATCC)) was dispensed (4 μL/well) and plates shaken at 900 rpm for 10 mins. Cells were seeded at 45,000 cells/well in assay media (4 μL/well), and incubated at 37° C., 5% CO2 for 1 hour, followed by the addition of IL-2 (R&D Systems; final concentration 300 ng/ml) in pre-warmed assay media (4 μL) for 30 minutes. After cytokine stimulation, cells were lysed with 6 ul of 3× AlphaLisa Lysis Buffer (PerkinElmer) containing 1× PhosStop and Complete tablets (Roche). The lysate was shaken at 900 rpm for 10 minutes at room temperature (RT). Phosphorylated STAT5 was measured via the pSTAT5 AlphaLisa kit (PerkinElmer). Freshly prepared acceptor bead mixture was dispensed onto lysate (5 μL) under green filtered <100 lux light. Plates were shaken at 900 rpm for 2 mins, briefly spun down, and incubated for 2 hrs at RT in the dark. Donor beads were dispensed (5 μL) under green filtered <100 lux light. Plates were shaken at 900 rpm for 2 minutes, briefly spun down, and incubated overnight at RT in the dark.
# To determine the inhibitory potency of test compounds in response to IL-2, the average emission intensity of beads bound to pSTAT5 was measured in a human T cell line. IC50 values were determined from analysis of the inhibition curves of signal intensity versus compound concentration. Data are expressed as pIC50 (negative decadic logarithm IC50) values (mean±standard deviation).
# JAK3 = biological target: T2, JAK3 (Homo sapiens, UniProt P52333); assay: Biochemical JAK3 kinase assay (LanthaScreen); parameters: GST; purchased Life Technologies; conditions: for JAK3 (pKi)-JAK1 (pKi): selectivity: difference of pKi JAK3 and pKi JAK1; for Ki: read-out: JAK 3 (pKi) (converted)
# T2 sequence (P52333 1-1124): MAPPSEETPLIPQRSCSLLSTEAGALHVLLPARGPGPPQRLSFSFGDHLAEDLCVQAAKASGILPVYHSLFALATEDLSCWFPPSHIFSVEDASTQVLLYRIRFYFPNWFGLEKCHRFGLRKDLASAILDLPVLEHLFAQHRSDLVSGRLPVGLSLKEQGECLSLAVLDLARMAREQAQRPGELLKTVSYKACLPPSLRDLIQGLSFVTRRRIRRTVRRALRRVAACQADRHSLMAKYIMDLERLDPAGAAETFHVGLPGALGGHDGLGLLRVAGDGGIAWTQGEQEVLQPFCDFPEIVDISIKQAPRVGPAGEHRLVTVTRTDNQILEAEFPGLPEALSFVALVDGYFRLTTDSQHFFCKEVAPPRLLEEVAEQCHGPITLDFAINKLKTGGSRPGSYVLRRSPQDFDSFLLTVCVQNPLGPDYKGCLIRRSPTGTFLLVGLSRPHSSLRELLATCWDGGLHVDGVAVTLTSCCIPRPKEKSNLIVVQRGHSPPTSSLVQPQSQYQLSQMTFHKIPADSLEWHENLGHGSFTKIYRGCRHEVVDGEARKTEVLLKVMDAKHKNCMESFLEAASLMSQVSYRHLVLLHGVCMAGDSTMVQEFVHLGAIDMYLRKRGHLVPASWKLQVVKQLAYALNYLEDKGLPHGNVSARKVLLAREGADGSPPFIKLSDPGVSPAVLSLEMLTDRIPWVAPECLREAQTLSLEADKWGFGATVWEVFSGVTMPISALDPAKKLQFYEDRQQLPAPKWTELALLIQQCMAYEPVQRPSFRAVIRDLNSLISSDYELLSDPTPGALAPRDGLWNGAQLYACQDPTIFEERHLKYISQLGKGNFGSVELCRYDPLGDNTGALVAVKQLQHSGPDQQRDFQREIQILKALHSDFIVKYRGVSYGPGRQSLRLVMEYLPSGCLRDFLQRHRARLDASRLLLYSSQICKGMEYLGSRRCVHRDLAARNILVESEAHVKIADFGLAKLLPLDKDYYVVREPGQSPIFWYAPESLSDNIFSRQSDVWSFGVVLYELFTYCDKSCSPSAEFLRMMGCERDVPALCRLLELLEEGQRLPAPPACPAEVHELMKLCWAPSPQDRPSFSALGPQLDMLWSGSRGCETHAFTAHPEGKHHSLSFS
# Protocol: as §1, §2, §3
# T1 sequence (P23458 whole entry): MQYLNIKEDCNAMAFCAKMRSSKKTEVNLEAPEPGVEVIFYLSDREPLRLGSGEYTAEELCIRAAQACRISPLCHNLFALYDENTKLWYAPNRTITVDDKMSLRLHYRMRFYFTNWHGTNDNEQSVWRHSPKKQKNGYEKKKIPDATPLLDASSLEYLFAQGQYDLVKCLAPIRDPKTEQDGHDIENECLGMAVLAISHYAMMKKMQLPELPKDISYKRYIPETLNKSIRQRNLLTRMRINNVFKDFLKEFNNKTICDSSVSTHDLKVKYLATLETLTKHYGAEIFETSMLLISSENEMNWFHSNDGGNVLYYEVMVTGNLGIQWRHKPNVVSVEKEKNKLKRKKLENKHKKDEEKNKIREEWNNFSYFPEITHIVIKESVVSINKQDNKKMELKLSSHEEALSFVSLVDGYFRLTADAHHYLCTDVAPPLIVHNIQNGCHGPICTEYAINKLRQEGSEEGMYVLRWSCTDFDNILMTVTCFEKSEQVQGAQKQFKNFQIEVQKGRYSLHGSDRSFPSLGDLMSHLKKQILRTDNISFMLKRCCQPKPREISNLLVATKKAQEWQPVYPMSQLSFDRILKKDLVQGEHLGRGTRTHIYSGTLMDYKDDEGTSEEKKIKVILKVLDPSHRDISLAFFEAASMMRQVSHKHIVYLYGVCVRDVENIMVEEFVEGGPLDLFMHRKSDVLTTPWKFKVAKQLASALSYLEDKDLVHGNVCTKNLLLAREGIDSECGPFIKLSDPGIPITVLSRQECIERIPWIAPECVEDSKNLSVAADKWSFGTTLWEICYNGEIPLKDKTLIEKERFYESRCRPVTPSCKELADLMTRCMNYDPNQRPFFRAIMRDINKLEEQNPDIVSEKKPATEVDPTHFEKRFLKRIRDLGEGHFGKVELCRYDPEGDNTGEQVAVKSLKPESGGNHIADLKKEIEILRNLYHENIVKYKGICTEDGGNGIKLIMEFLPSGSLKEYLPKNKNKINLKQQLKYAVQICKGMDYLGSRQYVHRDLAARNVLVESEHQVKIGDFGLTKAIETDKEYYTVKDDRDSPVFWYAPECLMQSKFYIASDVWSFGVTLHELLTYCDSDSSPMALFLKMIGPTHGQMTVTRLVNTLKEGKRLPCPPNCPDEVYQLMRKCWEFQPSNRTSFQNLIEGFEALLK
SMILES,JAK 1 (pKi) (JAK1),Tall-1 (pIC50) [1],JAK 3 (pKi) (JAK3),JAK3 (pKi)-JAK1 (pKi) (JAK3),Ki (JAK1) [nM],IC50 [1] [nM],Ki (JAK3) [nM]
C=CC(=O)N1CC(C(C)(C)Oc2cc(-c3ccc(O)c(F)c3)cc3[nH]ncc23)C1 [Compound 3-28],E (a pKi value of 7 or below (Ki of 100 nM or above)),A (a pIC50 value≥7.5 (IC50≤32 nM)),A (a pKi value≥10 (Ki≤0.1 nM)),A (a value of 3 or above),–,–,–
C=CC(=O)N1CC(COc2nc(-c3ccc(O)cc3)cc3[nH]ncc23)C1 [Compound 3-29],E (a pKi value of 7 or below (Ki of 100 nM or above)),A (a pIC50 value≥7.5 (IC50≤32 nM)),B (a pKi value between 9 and 10 (Ki between 1 nM and 0.1 nM)),A (a value of 3 or above),–,–,–
C=CC(=O)N1CC(COc2nc(-c3ccc(O)cc3)nc3[nH]ncc23)(OC)C1 [Compound 3-76],–,–,–,A (a value of 3 or above),> 100,31.6 to 200,< 0.1
CN(C)C/C=C/C(=O)N1CC(COc2cc(-c3ccc(O)c(F)c3F)cc3[nH]ncc23)C1 [Compound 3-82],–,–,–,B (a value of 2.3 to 3),10 to 100,< 31.6,< 0.1
C#CC(=O)N1CC(COc2cc(-c3ccc(O)cc3)cc3[nH]ncc23)C1 [Compound 3-84],–,–,–,A (a value of 3 or above),> 100,31.6 to 200,< 0.1
C=CC(=O)N1CC(F)(COc2nc(-c3ccc(O)cc3)cc3[nH]ncc23)C1 [Compound 3-90],–,–,–,B (a value of 2.3 to 3),10 to 100,< 31.6,< 0.1
O=C(/C=C/CN1CCC1)N1CC(COc2cc(-c3ccc(O)cc3)cc3[nH]ncc23)C1 [Compound 3-123],–,–,–,A (a value of 3 or above),> 100,200 to 1000,< 0.1
O=C(/C=C/CN1CCCC1)N1CC(COc2cc(-c3ccc(O)cc3)cc3[nH]ncc23)C1 [Compound 3-124],–,–,–,A (a value of 3 or above),> 100,31.6 to 200,0.1 to 1
O=C(/C=C/CN1CCOCC1)N1CC(COc2cc(-c3ccc(O)cc3)cc3[nH]ncc23)C1 [Compound 3-129],–,–,–,A (a value of 3 or above),> 100,200 to 1000,0.1 to 1
O=C(/C=C/CN1CCSCC1)N1CC(COc2cc(-c3ccc(O)cc3)cc3[nH]ncc23)C1 [Compound 3-130],–,–,–,A (a value of 3 or above),> 100,31.6 to 200,0.1 to 1
COC[C@H]1CCN(C/C=C/C(=O)N2CC(COc3cc(-c4ccc(O)cc4)cc4[nH]ncc34)C2)C1 [Compound 3-134],–,–,–,A (a value of 3 or above),> 100,31.6 to 200,0.1 to 1
C=CC(=O)N1CC(CNc2cc(-c3ccc(O)cc3)cc3[nH]ncc23)C1 [Compound 4-3],E (a pKi value of 7 or below (Ki of 100 nM or above)),B (a pIC50 value between 6.7 (included) and 7.5 (IC50 between 200 nM and 32 nM)),B (a pKi value between 9 and 10 (Ki between 1 nM and 0.1 nM)),B (a value of 2.3 to 3),–,–,–
CN(C)C/C=C/C(=O)N1CC(CN(C)c2nc(-c3ccc(O)cc3)cc3[nH]ncc23)C1 [Compound 4-8],E (a pKi value of 7 or below (Ki of 100 nM or above)),B (a pIC50 value between 6.7 (included) and 7.5 (IC50 between 200 nM and 32 nM)),B (a pKi value between 9 and 10 (Ki between 1 nM and 0.1 nM)),B (a value of 2.3 to 3),–,–,–
CN(C)C/C=C/C(=O)N1CC(Oc2cc(-c3ccc(O)cc3)cc3[nH]ncc23)C1 [Compound 5-1],E (a pKi value of 7 or below (Ki of 100 nM or above)),C (a pIC50 value between 6 and 6.7 (IC50 between 1 μM and 200 nM)),B (a pKi value between 9 and 10 (Ki between 1 nM and 0.1 nM)),A (a value of 3 or above),–,–,–
CN(C)C/C=C/C(=O)N1CC(N(C)c2cc(-c3ccc(O)cc3)cc3[nH]ncc23)C1 [Compound 5-8],E (a pKi value of 7 or below (Ki of 100 nM or above)),C (a pIC50 value between 6 and 6.7 (IC50 between 1 μM and 200 nM)),B (a pKi value between 9 and 10 (Ki between 1 nM and 0.1 nM)),A (a value of 3 or above),–,–,–
C=CC(=O)N1CC(N(C)c2cc(-c3ccc(O)cc3)cc3[nH]ncc23)C1 [Compound 5-9],E (a pKi value of 7 or below (Ki of 100 nM or above)),C (a pIC50 value between 6 and 6.7 (IC50 between 1 μM and 200 nM)),B (a pKi value between 9 and 10 (Ki between 1 nM and 0.1 nM)),A (a value of 3 or above),–,–,–
CN(C)C/C=C/C(=O)N1CC(C)(Oc2cc(-c3ccc(O)cc3)cc3[nH]ncc23)C1 [Compound 5-11],E (a pKi value of 7 or below (Ki of 100 nM or above)),B (a pIC50 value between 6.7 (included) and 7.5 (IC50 between 200 nM and 32 nM)),B (a pKi value between 9 and 10 (Ki between 1 nM and 0.1 nM)),A (a value of 3 or above),–,–,–
CN(C)C/C=C/C(=O)N1CC(Oc2cc(-c3ccc(O)cc3)cc3[nH]ncc23)(C2CC2)C1 [Compound 5-13],E (a pKi value of 7 or below (Ki of 100 nM or above)),B (a pIC50 value between 6.7 (included) and 7.5 (IC50 between 200 nM and 32 nM)),B (a pKi value between 9 and 10 (Ki between 1 nM and 0.1 nM)),B (a value of 2.3 to 3),–,–,–
C=CC(=O)N1CC(Oc2cc(-c3ccc(O)cc3)nc3[nH]ncc23)C1 [Compound 5-15],E (a pKi value of 7 or below (Ki of 100 nM or above)),B (a pIC50 value between 6.7 (included) and 7.5 (IC50 between 200 nM and 32 nM)),A (a pKi value≥10 (Ki≤0.1 nM)),A (a value of 3 or above),–,–,–
